Several values for one entry are separate records, joined by “and”; a condition that tells them apart may be missing. Equal values may be shown once. Blank lines part the entries; values can stand above or below the compound they belong to.
Tested on: 186277-243-T-J2-PDC multi-cell spheroid viability
Assay: Anticancer human tumor 186277-243-T-J2-PDC patient-derived colon adenocarcinoma cell line growth inhibition [PI3K]
Conditions: for viability, T/C: stronger effect = lower value
Outline: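 Tumor cells were combined with HUVEC and MSCs into spheroids, then dosed with PI3K-inhibitor combinations over half-log ranges capped near clinical Cmax or 10 microM.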

[1] = curve of first compound, second compound 0.0316 µM
[2] = curve of first compound, second compound 0.1 µM
[3] = curve of first compound, second compound 0.316 µM
[4] = curve of first compound, second compound 1 µM
[5] = curve of first compound, second compound 3.16 µM
[6] = curve of first compound, second compound 10 µM
[7] = second compound 0.0316 µM, first compound 0.0316 µM
[8] = second compound 0.0316 µM, first compound 0.1 µM
[9] = second compound 0.0316 µM, first compound 0.316 µM
[10] = second compound 0.0316 µM, first compound 1 µM
[11] = second compound 0.0316 µM, first compound 3.16 µM
[12] = second compound 0.0316 µM, first compound 10 µM
[13] = second compound 0.1 µM, first compound 0.0316 µM
[14] = second compound 0.1 µM, first compound 0.1 µM
[15] = second compound 0.1 µM, first compound 0.316 µM
[16] = second compound 0.1 µM, first compound 1 µM
[17] = second compound 0.1 µM, first compound 3.16 µM
[18] = second compound 0.1 µM, first compound 10 µM
[19] = second compound 0.316 µM, first compound 0.0316 µM
[20] = second compound 0.316 µM, first compound 0.1 µM
[21] = second compound 0.316 µM, first compound 0.316 µM
[22] = second compound 0.316 µM, first compound 1 µM
[23] = second compound 0.316 µM, first compound 3.16 µM
[24] = second compound 0.316 µM, first compound 10 µM
[25] = second compound 1 µM, first compound 0.0316 µM
[26] = second compound 1 µM, first compound 0.1 µM
[27] = second compound 1 µM, first compound 0.316 µM
[28] = second compound 1 µM, first compound 1 µM
[29] = second compound 1 µM, first compound 3.16 µM
[30] = second compound 1 µM, first compound 10 µM
[31] = second compound 3.16 µM, first compound 0.0316 µM
[32] = second compound 3.16 µM, first compound 0.1 µM
[33] = second compound 3.16 µM, first compound 0.316 µM
[34] = second compound 3.16 µM, first compound 1 µM
[35] = second compound 3.16 µM, first compound 3.16 µM
[36] = second compound 3.16 µM, first compound 10 µM
[37] = second compound 10 µM, first compound 0.0316 µM
[38] = second compound 10 µM, first compound 0.1 µM
[39] = second compound 10 µM, first compound 0.316 µM
[40] = second compound 10 µM, first compound 1 µM
[41] = second compound 10 µM, first compound 3.16 µM
[42] = second compound 10 µM, first compound 10 µM
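Further: spheroids exposed to compounds for seven days before viability reading.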
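Wherever viability, T/C is given: 100% = DMSO vehicle control viability.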

SMILES: Cn1nccc1Nc1nccc(-c2ccn(C(CO)c3ccc(Cl)c(F)c3)c(=O)c2)n1 (stereo unspecified) + Cc1nc(NC(=O)N2CCCC2C(N)=O)sc1-c1ccnc(C(C)(C)C(F)(F)F)c1
- IC50 [1]: 1840 nM
- IC50 [2]: 1190 nM
- IC50 [3]: 670 nM
- IC50 [4]: 152 nM
- IC50 [5]: < 31.6 nM
- IC50 [6]: < 31.6 nM
- viability, T/C [7]: 89%
- viability, T/C [8]: 104%
- viability, T/C [9]: 117%
- viability, T/C [10]: 71.3%
- viability, T/C [11]: 34.2%
- viability, T/C [12]: 18.5%
- viability, T/C [13]: 91.8%
- viability, T/C [14]: 108%
- viability, T/C [15]: 99.5%
- viability, T/C [16]: 53.8%
- viability, T/C [17]: 30.9%
- viability, T/C [18]: 22.5%
- viability, T/C [19]: 105%
- viability, T/C [20]: 100%
- viability, T/C [21]: 76.2%
- viability, T/C [22]: 34.8%
- viability, T/C [23]: 20.5%
- viability, T/C [24]: 9.74%
- viability, T/C [25]: 94.9%
- viability, T/C [26]: 61.1%
- viability, T/C [27]: 30.9%
- viability, T/C [28]: 13.9%
- viability, T/C [29]: 14%
- viability, T/C [30]: 6.14%
- viability, T/C [31]: 47.4%
- viability, T/C [32]: 29.6%
- viability, T/C [33]: 15%
- viability, T/C [34]: 5.96%
- viability, T/C [35]: 8.12%
- viability, T/C [36]: 2.21%
- viability, T/C [37]: 9.88%
- viability, T/C [38]: 9.03%
- viability, T/C [39]: 8.27%
- viability, T/C [40]: 8.15%
- viability, T/C [41]: 1.39%
- viability, T/C [42]: 2.02%

SMILES: C[C@@H](NC(=O)c1ncnc(N)c1Cl)c1ncc(C(=O)Nc2cc(C(F)(F)F)c(Cl)cn2)s1 + COc1c(OCCCN2CCOCC2)ccc2c3n(c(=NC(=O)c4cnc(N)nc4)nc12)CCN3
- IC50 (curve of first compound, second compound 0.00316 µM): > 10000 nM
- IC50 (curve of first compound, second compound 0.01 µM): 8020 nM
- IC50 [1]: 1640 nM
- IC50 [2]: < 31.6 nM
- IC50 [3]: < 31.6 nM
- IC50 [4]: < 31.6 nM
- viability, T/C (second compound 0.00316 µM, first compound 0.0316 µM): 97.9%
- viability, T/C (second compound 0.00316 µM, first compound 0.1 µM): 94%
- viability, T/C (second compound 0.00316 µM, first compound 0.316 µM): 107%
- viability, T/C (second compound 0.00316 µM, first compound 1 µM): 90.4%
- viability, T/C (second compound 0.00316 µM, first compound 3.16 µM): 108%
- viability, T/C (second compound 0.00316 µM, first compound 10 µM): 67.7%
- viability, T/C (second compound 0.01 µM, first compound 0.0316 µM): 128%
- viability, T/C (second compound 0.01 µM, first compound 0.1 µM): 102%
- viability, T/C (second compound 0.01 µM, first compound 0.316 µM): 113%
- viability, T/C (second compound 0.01 µM, first compound 1 µM): 96.9%
- viability, T/C (second compound 0.01 µM, first compound 3.16 µM): 98.4%
- viability, T/C (second compound 0.01 µM, first compound 10 µM): 38.7%
- viability, T/C [7]: 87.7%
- viability, T/C [8]: 82%
- viability, T/C [9]: 81.6%
- viability, T/C [10]: 68.5%
- viability, T/C [11]: 25.9%
- viability, T/C [12]: 5.51%
- viability, T/C [13]: 37.9%
- viability, T/C [14]: 30.7%
- viability, T/C [15]: 25.7%
- viability, T/C [16]: 13.2%
- viability, T/C [17]: 7.38%
- viability, T/C [18]: 4.45%
- viability, T/C [19]: 7.07%
- viability, T/C [20]: 7.19%
- viability, T/C [21]: 7.95%
- viability, T/C [22]: 6.31%
- viability, T/C [23]: 1.83%
- viability, T/C [24]: 1.23%
- viability, T/C [25]: 4.1%
- viability, T/C [26]: 2.89%
- viability, T/C [27]: 2.41%
- viability, T/C [28]: 2.48%
- viability, T/C [29]: 1.54%
- viability, T/C [30]: 0.23%

SMILES: Cn1ncnc1[C@H]1c2n[nH]c(=O)c3cc(F)cc(c23)N[C@@H]1c1ccc(F)cc1
- viability, T/C (compound 0.000316 µM): 97.7% [middle of 4 runs]
- viability, T/C (compound 0.001 µM): 94.7% [middle of 4 runs]
- viability, T/C (compound 0.00316 µM): 97.8% [middle of 4 runs]
- viability, T/C (compound 0.01 µM): 93% [middle of 4 runs]
- viability, T/C (compound 0.1 µM): 93.6% [middle of 4 runs]
- IC50 (curve of compound): > 100 nM

SMILES: CC(C)n1nc(-c2ccc3oc(N)nc3c2)c2c(N)ncnc21 + Cc1nc(NC(=O)N2CCCC2C(N)=O)sc1-c1ccnc(C(C)(C)C(F)(F)F)c1
- IC50 [1]: 53.1 nM
- IC50 [2]: 52.6 nM
- IC50 [3]: 38 nM
- IC50 [4]: 24.5 nM
- IC50 [5]: 2.04 nM
- IC50 [6]: < 0.316 nM
- viability, T/C (second compound 0.0316 µM, first compound 0.000316 µM): 106%
- viability, T/C (second compound 0.0316 µM, first compound 0.001 µM): 90.3%
- viability, T/C (second compound 0.0316 µM, first compound 0.00316 µM): 101%
- viability, T/C (second compound 0.0316 µM, first compound 0.01 µM): 101%
- viability, T/C [7]: 73.5%
- viability, T/C [8]: 21.5%
- viability, T/C (second compound 0.1 µM, first compound 0.000316 µM): 101%
- viability, T/C (second compound 0.1 µM, first compound 0.001 µM): 107%
- viability, T/C (second compound 0.1 µM, first compound 0.00316 µM): 99.1%
- viability, T/C (second compound 0.1 µM, first compound 0.01 µM): 87.1%
- viability, T/C [13]: 72.1%
- viability, T/C [14]: 24.1%
- viability, T/C (second compound 0.316 µM, first compound 0.000316 µM): 114%
- viability, T/C (second compound 0.316 µM, first compound 0.001 µM): 107%
- viability, T/C (second compound 0.316 µM, first compound 0.00316 µM): 79.9%
- viability, T/C (second compound 0.316 µM, first compound 0.01 µM): 82.4%
- viability, T/C [19]: 63.7%
- viability, T/C [20]: 14.7%
- viability, T/C (second compound 1 µM, first compound 0.000316 µM): 113%
- viability, T/C (second compound 1 µM, first compound 0.001 µM): 97.5%
- viability, T/C (second compound 1 µM, first compound 0.00316 µM): 87.7%
- viability, T/C (second compound 1 µM, first compound 0.01 µM): 76.8%
- viability, T/C [25]: 41%
- viability, T/C [26]: 6.83%
- viability, T/C (second compound 3.16 µM, first compound 0.000316 µM): 62.1%
- viability, T/C (second compound 3.16 µM, first compound 0.001 µM): 56.8%
- viability, T/C (second compound 3.16 µM, first compound 0.00316 µM): 46.2%
- viability, T/C (second compound 3.16 µM, first compound 0.01 µM): 29%
- viability, T/C [31]: 14.5%
- viability, T/C [32]: 3.88%
- viability, T/C (second compound 10 µM, first compound 0.000316 µM): 17.3%
- viability, T/C (second compound 10 µM, first compound 0.001 µM): 16.8%
- viability, T/C (second compound 10 µM, first compound 0.00316 µM): 10.8%
- viability, T/C (second compound 10 µM, first compound 0.01 µM): 13.1%
- viability, T/C [37]: 6.47%
- viability, T/C [38]: 2.92%

Now from value to compound, other results behind:

- IC50 (curve of compound): 2.35 µM [middle of 4 runs]
SMILES: Cn1nccc1Nc1nccc(-c2ccn(C(CO)c3ccc(Cl)c(F)c3)c(=O)c2)n1 (stereo unspecified)
- viability, T/C (compound 0.0316 µM): 96.2% [middle of 4 runs]
- viability, T/C (compound 0.1 µM): 102% and 103% (2×) and 105%
- viability, T/C (compound 0.316 µM): 99.2% [middle of 4 runs]
- viability, T/C (compound 1 µM): 81% [middle of 4 runs]
- viability, T/C (compound 3.16 µM): 37.2% [middle of 4 runs]
- viability, T/C (compound 10 µM): 26.7% [middle of 4 runs]

- IC50 [1]: 2800 nM
- IC50 [2]: 2380 nM
- IC50 [3]: 2400 nM
- IC50 [4]: 2090 nM
- IC50 [5]: 1160 nM
- IC50 [6]: 339 nM
SMILES: Cn1nccc1Nc1nccc(-c2ccn(C(CO)c3ccc(Cl)c(F)c3)c(=O)c2)n1 (stereo unspecified) + CC(Nc1ncnc2nc[nH]c12)c1cc2cccc(Cl)c2c(=O)n1-c1ccccc1
- viability, T/C [7]: 82.5%
- viability, T/C [8]: 86.9%
- viability, T/C [9]: 112%
- viability, T/C [10]: 83.7%
- viability, T/C [11]: 46.3%
- viability, T/C [12]: 23.6%
- viability, T/C [13]: 85.3%
- viability, T/C [14]: 103%
- viability, T/C [15]: 107%
- viability, T/C [16]: 89.1%
- viability, T/C [17]: 37.2%
- viability, T/C [18]: 26.2%
- viability, T/C [19]: 94.7%
- viability, T/C [20]: 96.1%
- viability, T/C [21]: 125%
- viability, T/C [22]: 83.1%
- viability, T/C [23]: 40.9%
- viability, T/C [24]: 23.7%
- viability, T/C [25]: 94.3%
- viability, T/C [26]: 101%
- viability, T/C [27]: 103%
- viability, T/C [28]: 75.7%
- viability, T/C [29]: 36.3%
- viability, T/C [30]: 24.3%
- viability, T/C [31]: 106%
- viability, T/C [32]: 100%
- viability, T/C [33]: 105%
- viability, T/C [34]: 53.9%
- viability, T/C [35]: 27.6%
- viability, T/C [36]: 20.8%
- viability, T/C [37]: 88.7%
- viability, T/C [38]: 91.4%
- viability, T/C [39]: 51%
- viability, T/C [40]: 27.5%
- viability, T/C [41]: 24.5%
- viability, T/C [42]: 15.5%
